# From US20050064382A1, “Method of prevention of lysosomal leakage in eukaryotic cells by using 6-methyluracil based water-soluble compounds and method of producing thereof” (priority 2002, published 2005)
# Tests used:
# [1] = system: neurons from rat embryos brains; assay: Survival of rat embryo brain neurons after mechanical damage; assay type: cell-based; settings: for number of live neurons vs culture without Glucural: 500 mkg/ml
# Excerpt: One particularly attractive application of the cytoprotective quality of 6-methyluracil compounds is to extend the life span of primer cell cultures. Primer cell cultures are cell cultures obtained from various tissues. They are used routinely for new drug screening in pharmaceutical industry. The problem associated with many primer cell cultures is their general inability to propagate and grow, leading to their early death and therefore limiting their use in drug research. For example, a rat embryo brain neuron cell culture has about 80% mortality in 12-14 days.
# The following is an example of the difficulty in maintaining the survival rate of primer cell cultures. […] The term “growing” of these primer cell cultures means maintaining their survival for a 10-15 day period. But these cell cultures are very valuable as test objects and are commonly used for the initial testing of new drugs (drug screening). Glucural was tested on the neurons from rat embryos brains that were transferred into cell cultures. The viability of these neurons was tested during 2 stages of the production of embryonic neuron cell cultures: 1) mechanical disassembly and washing, and 2) the “growing” of the cell culture.
# After 7 days, this ratio increased to nearly triple as shown on FIGS. 1 and 2.
# MEL cells [2] = assay: Cell recovery after short-term and long-term storage at −135° C.; assay type: cell-based, mouse; settings: for numbers of cells per ml, Short-Term Storage: 3 days at −135° C.; for numbers of cells per ml, Long-Term Storage: six weeks at −135° C.
# Protocol: The cells were then brought to −135° C. over a two-hour period, and stored at this temperature for 3 days (short term) or six weeks (long term). The cells were then thawed quickly by incubation at 37° C., washed twice with growing medium, re-suspended in 5 ml and incubated at 37° C. for 24 hours. The numbers of cells per ml. is x 10^4, two different assays. […]
# Drosophila [3] = assay: X-ray caused loss of X-chromosomes in late oocyte of Drosophila; assay type: in vivo; settings: 1000 Roentgens
# THP-1 cells = assay: Longer-duration growth of THP-1 cells after DMSO shock and starvation, live cells; assay type: cell-based, human
# Protocol: Growth was measured after the administration of “DMSO Shock” and without a change of medium. […] Trypan-blue test was used: the number of live cells per 0.1 ml (based on 4 counting iterations).
# Drosophila [4] = assay: Sterol-deficit diet and both drugs: frequency of X-chromosomes loss in late oocytes of Drosophila; assay type: in vivo
# Excerpt: The classic genetic model was used, based on the well-known method: the frequency of mutations in Drosophila (fruit flies) caused by X-rays. It is known that the frequency of these mutations can be increased by adding to the food of females certain membrane destabilizers (we used Polyene Antibiotics—Amphotericin B), or by the use of a special diet. Like all insects, Drosophila obtain all of their sterols from food (yeast for Drosophila). A special diet rich with Nistatin (Polyene antibiotic) resistant yeast was used.
# The frequency of the loss of x-chromosomes (males excluded) was measured after crossing with the […]. Females were given a dose of 1000 Roentgens 5 days before being given the food additive or “special diet”.
# Influence of sterol-deficit diet and both drugs on the frequency of X-chromosomes loss in late oocytes of Drosophila. Groups 1-4 received yeast of wild type, groups 5,6 (diet) received nistatin resistant yeasts meaning groups 5,6 had abnormal sterols in membranes: […]
# Shelf life = assay type: physicochemical; settings: ambient temperatures
# mice = assay: Toxicity LD50; assay type: in vivo
# MEL cells [5] = assay: Moderate damage: storage three days at −135° C. then growth in 1% DMSO; assay type: cell-based, mouse; settings: 24 hours
# Protocol: The cells were then brought to −135° C. over a two-hour period and stored at this temperature for 3 days. […] The number of cells per ml. is x 10^4, columns represent different assays.
# [6] = system: HUCVEC exposed to human TNF-alpha; assay: HUCVEC Assays 4-6: exposure to human TNF-alpha, trypan-blue test; assay type: cell-based; settings: Glucural 500 mkg/ml
# Protocol: To test for cell damage, HUCVEC were exposed for period of 6 to 24 hours to the human TNF-alpha. The trypan-blue test was used. After exposure, mono-layers were removed by trypsin treatment. Results were estimated based on the percentage of colored dead cells in the mono-layer.
# [7] = system: rat thyroid-derived cell line FRTL-5; assay: Storage of FRTL-5 cells at low temperature, viability by well bottom coverage; assay type: cell-based
# Protocol: The goal of the study was to assess the influence of Glucural on cell recovery of different mammalian cells suspended in various cryo-protectors. A single layer of the rat thyroid-derived cell line FRTL-5 was grown in VPF-12 medium containing 10% calf serum (C.S.) in Petri dishes (10 cm) stored in an environment of 5% CO2, 100% humidity and at 37° C. Cell coverage on the Petri dish bottom reached 80-90% over 6-8 days. A single-layer cell culture of the cell line from the anterior lobe of the pituitary gland (corticotrophs) of ATT-20 was grown in similar fashion but in D-MEM medium containing 10% C.S.
# After exposure, cell suspensions were melted quickly in aliquots with cell suspension equal to 0.2 or 0.4 ml per well. The growing period varied depending on conditions of cell storage. All trials were performed in duplicate. Cell viability was estimated by the percentage of the well bottom covered by cells.
# The same method was used here as in tests with MEL cells. Cryo-protectors used were not optimal for FRTL-5 and ATT-20 cells. Conditions of freezing were not optimal in assays # 1, 5 and 6.
substance,measurement,setting,value
"complex of 2,4-dihydroxy-6-methylpyrimidine with N-methyl-D-glucamine [Glucural]",increase of life span of rat embryo brain neuron cell culture,[1],more than two fold
same,number of live neurons vs culture without Glucural,[1]; after 7 days,nearly triple
same,number of live neurons vs culture without Glucural,[1]; after one day,more than double
same,effect during short-term storage,MEL cells [2],little or no effect
same,"numbers of cells per ml, Short-Term Storage",MEL cells [2]; Glucural 10 mkg/ml,34 ± 4 x 10^4
same,"numbers of cells per ml, Long-Term Storage",MEL cells [2]; Glucural 10 mkg/ml,122 ± 8 x 10^4
same,"numbers of cells per ml, Short-Term Storage",MEL cells [2]; Glucural 25 mkg/ml,38 ± 2 x 10^4
same,"numbers of cells per ml, Long-Term Storage",MEL cells [2]; Glucural 25 mkg/ml,167 ± 3 x 10^4
same,"numbers of cells per ml, Short-Term Storage",MEL cells [2]; Glucural 50 mkg/ml,33 ± 2 x 10^4
same,"numbers of cells per ml, Long-Term Storage",MEL cells [2]; Glucural 50 mkg/ml,200 ± 12 x 10^4
same,"numbers of cells per ml, Short-Term Storage",MEL cells [2]; Glucural 100 mkg/ml,37 ± 2 x 10^4
same,"numbers of cells per ml, Long-Term Storage",MEL cells [2]; Glucural 100 mkg/ml,169 ± 15 x 10^4
same,"numbers of cells per ml, Short-Term Storage",MEL cells [2]; Glucural 200 mkg/ml,56 ± 5 x 10^4
same,"numbers of cells per ml, Long-Term Storage",MEL cells [2]; Glucural 200 mkg/ml,155 ± 14 x 10^4
same,increase of cell survival rates during long-term storage,MEL cells [2]; optimal concentration of about 50 mkg/ml,over 3 times
same,"Frequency of the loss of X-chromosomes, %",Drosophila [3]; 1.0 mkg/female,1.7 ± 0.21%
same,"Frequency of the loss of X-chromosomes, %",Drosophila [3]; 2.0 mkg/female,1.1 ± 0.20%
same,"Frequency of the loss of X-chromosomes, %",Drosophila [3]; 2.5 mkg/female,0.9 ± 0.18%
same,"Frequency of the loss of X-chromosomes, %",Drosophila [3]; 5.0 mkg/female,0.7 ± 0.14%
same,"Frequency of the loss of X-chromosomes, %",Drosophila [3]; 10.0 mkg/female,1.2 ± 0.19%
same,optimal dose for THP-1 cells,THP-1 cells,25 mkg/ml
same,number of live cells per 0.1 ml,"THP-1 cells; B Control + Glucural 25 mkg/ml, assay #1, 5 days growing",241 ± 24 per 0.1 ml
same,number of live cells per 0.1 ml,"THP-1 cells; B Control + Glucural 25 mkg/ml, assay #3, 4 days growing",136 ± 5 per 0.1 ml
same,number of live cells per 0.1 ml,"THP-1 cells; B Control + Glucural 25 mkg/ml, assay #4, 4 days growing",160 ± 22 per 0.1 ml
same,number of live cells per 0.1 ml,"THP-1 cells; D DMSO shock + Glucural 25 mkg/ml, assay #1, 5 days growing",228 ± 48 per 0.1 ml
same,number of live cells per 0.1 ml,"THP-1 cells; D DMSO shock + Glucural 25 mkg/ml, assay #2, 6 days growing",184 ± 19 per 0.1 ml
same,number of live cells per 0.1 ml,"THP-1 cells; D DMSO shock + Glucural 25 mkg/ml, assay #3, 4 days growing",137 ± 6 per 0.1 ml
same,number of live cells per 0.1 ml,"THP-1 cells; D DMSO shock + Glucural 25 mkg/ml, assay #4, 4 days growing",222 ± 42 per 0.1 ml
same,"Protective Effect of Glucural, %",Drosophila [4]; Amphotericin B/Glucural vs Amphotericin B,26%
same,"Frequency of X-Chromosomes loss, %",Drosophila [4]; Diet (nistatin resistant yeasts),4.1 ± 0.33%
same,"Protective Effect of Glucural, %",Drosophila [4]; Diet/Glucural vs Diet,27%
same,"Protective Effect of Glucural, %",Drosophila [4]; Glucural vs Control,50%
same,"Frequency of X-Chromosomes loss, %",Drosophila [4]; yeast of wild type,0.9 ± 0.14%
same,shelf life,Shelf life,more than 10 years
same,LD50 equivalent for a 50-kg person,mice; extrapolated from mice,100 g
same,LD50,mice; mice,about 2 g/kg
same,"number of cells per ml, Moderate damage",MEL cells [5]; Glucural 25 mkg/ml,58 ± 3 x 10^4
same,"number of cells per ml, Moderate damage",MEL cells [5]; Glucural 50 mkg/ml,76 ± 1 x 10^4
same,"number of cells per ml, Moderate damage",MEL cells [5]; Glucural 100 mkg/ml,82 ± 1 x 10^4
same,"number of cells per ml, Moderate damage",MEL cells [5]; Glucural 200 mkg/ml,163 ± 3 x 10^4
same,Percent of dead cells in mono-layer,"[6]; Assay 4, 24 hours, TNF-alpha 20 ng/ml",10.3 ± 1.3%
same,Percent of dead cells in mono-layer,"[6]; Assay 4, 24 hours, no TNF-alpha",4.4 ± 0.4%
same,Percent of dead cells in mono-layer,"[6]; Assay 5, 8 hours, TNF-alpha 10 ng/ml",4.1 ± 0.4%
same,Percent of dead cells in mono-layer,"[6]; Assay 5, 8 hours, TNF-alpha 20 ng/ml",5.4 ± 0.4%
same,Percent of dead cells in mono-layer,"[6]; Assay 5, 8 hours, no TNF-alpha",5.7 ± 0.5%
same,Percent of dead cells in mono-layer,"[6]; Assay 6, 6 hours, TNF-alpha 40 ng/ml",10.9 ± 3.4%
same,Percent of dead cells in mono-layer,"[6]; Assay 6, 6 hours, no TNF-alpha",13.8 ± 2.7%
same,Percentage of well bottom covered by cells,"[7]; #1 FRTL-5 (4 days), 10% Glycerol, −70° C., Glucural 100 mg/ml",90-100%
same,Percentage of well bottom covered by cells,"[7]; #1 FRTL-5 (4 days), 10% Glycerol, −70° C., Glucural 200 mg/ml",90-100%
same,Percentage of well bottom covered by cells,"[7]; #2 FRTL-5 (36 days), 10% Glycerol, −190° C., Glucural 100 mg/ml",10-15%
same,Percentage of well bottom covered by cells,"[7]; #3 FRTL-5 (4 days), 50% C.S., 0° C., 30 min, Glucural 100 mg/ml",60-70%
same,Percentage of well bottom covered by cells,"[7]; #3 FRTL-5 (4 days), 50% C.S., 0° C., 30 min, Glucural 200 mg/ml",60-70%
